One series addresses human SGLT2 (Homo sapiens (Human), UniProt P31639). In words: SGLT2 functional assay: inhibition of AMG uptake in CHO-FlpIn cells stably expressing human SGLT2. The format is cell-based. To be noted: read-out: hSGLT2 IC50. The source says: The SGLT2 functional assay was designed to detect the inhibition of methyl-alpha-D glucopyranoside (AMG—a non-metabolizable form of glucose) uptake via the SGLT2 transporter. The SGLT2 transporter recovers glucose from the proximal tubules of the kidney; its inhibition results in sugar wasted in the urine. The positive control compound, Phlorizin, is a known inhibitor of glucose uptake for SGLT2 and was used for comparing the high percent effect of SGLT2 inhibition of the test compounds.
CHO-FlpIn (Invitrogen, Carlsbad, Calif.) cells stably expressing human SGLT2 (pcDNA5/FRT) were plated in Iso-TC 96 well plates (Perkin Elmer, Waltham, Mass.) at a density of 100,000 cells/well in 100 microL of growth media (1:1 F-12/DMEM media (Gibco, Carlsbad, Calif.), 10% FBS (Sigma, St. Louis Mo.), 1× Pen/Strep (Gibco, Carlsbad, Calif.), 600 microg/mL Hygromycin (Invitrogen, Carlsbad, Calif.)). Prior to treating with test compound, confluent cells were serum starved for 2 hours at 37° C. in 1:1 F-12/DMEM media, replacing with fresh F-12/DMEM media after 1 hour. […] After incubation, cells were washed twice with ice cold wash buffer (uptake buffer containing 200 microM Phlorizin (Sigma), air dried and lysed in 30 microL of 200 mM NaOH and 1% SDS buffer on an orbital shaker. Microscint 40 (Perkin Elmer, Waltham, Mass.) was added to the lysed cells (giving a final volume of 200 microL) and mixed by orbital shaking for 30 minutes. Plates were stored in the dark overnight and quantitated in the 1540 Microbeta Trilux (Wallac, Waltham, Mass.) using a normalized protocol for ^14C detection. The percent effect of test compounds to inhibit AMG uptake was calculated using the following calculation: [% Effect=((ZPE−T)/(ZPE−HPE))×100%] where “ZPE” is the corrected counts per minute (CCPM) in control wells containing 0.5% DMSO, “T” is the CCPM in wells containing test compound at various concentrations of the standard curve, and “HPE” is the high percent effect referring to the CCPM in control wells containing 10 microM Phlorizin. The IC50 values were calculated using a dose response equation and are summarized for the compounds tested in Table 1. **For test compound 1, cells were pre-incubated with test compound 1 for 15 minutes prior to the addition of the appropriate amount of AMG (40 nCi AMG [U-^14C] (Perkin Elmer, Waltham, Mass.) in unlabelled AMG (Aldrich, St. Louis, Mo.)) per well yielding a final concentration of 200 microM AMG. […]

A further series has as its target hSGLT1 (Homo sapiens (Human), UniProt P13866). In words: hSGLT1 inhibition (Table 1). The format is cell-based. Particulars: individual runs (Run No.).
Setting [1] is: final concentration of 11.33 microM AMG, individual runs (Run No.).

Structures are written as SMILES. Several values for one entry are separate records, joined by “and”; a condition that tells them apart may be missing. Equal entries are not always repeated. Where two headings read alike, the source gives them in different places.

One may read the IC50 as the midpoint of a concentration-inhibition curve. A word on the melting point: it is the temperature of the solid-liquid transition.

human SGLT2, sequence (P31639 whole entry): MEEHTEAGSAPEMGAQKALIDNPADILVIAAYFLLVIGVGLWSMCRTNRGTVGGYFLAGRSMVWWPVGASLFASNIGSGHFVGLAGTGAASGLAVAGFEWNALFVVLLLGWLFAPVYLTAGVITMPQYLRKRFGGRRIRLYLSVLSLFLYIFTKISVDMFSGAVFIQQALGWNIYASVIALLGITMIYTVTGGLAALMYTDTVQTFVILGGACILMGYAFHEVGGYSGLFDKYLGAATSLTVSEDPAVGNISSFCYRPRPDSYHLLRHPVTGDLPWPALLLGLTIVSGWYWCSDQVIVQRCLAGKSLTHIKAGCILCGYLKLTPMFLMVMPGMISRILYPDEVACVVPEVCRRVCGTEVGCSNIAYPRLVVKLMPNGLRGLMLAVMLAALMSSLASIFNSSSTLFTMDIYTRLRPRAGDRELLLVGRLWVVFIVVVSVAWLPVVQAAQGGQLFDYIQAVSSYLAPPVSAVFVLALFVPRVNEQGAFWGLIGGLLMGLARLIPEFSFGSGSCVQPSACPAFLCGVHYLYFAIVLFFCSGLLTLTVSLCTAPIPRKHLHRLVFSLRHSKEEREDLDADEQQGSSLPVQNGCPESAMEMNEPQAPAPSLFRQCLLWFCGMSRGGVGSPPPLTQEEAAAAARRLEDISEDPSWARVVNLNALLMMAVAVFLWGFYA
hSGLT1, sequence (P13866 whole entry): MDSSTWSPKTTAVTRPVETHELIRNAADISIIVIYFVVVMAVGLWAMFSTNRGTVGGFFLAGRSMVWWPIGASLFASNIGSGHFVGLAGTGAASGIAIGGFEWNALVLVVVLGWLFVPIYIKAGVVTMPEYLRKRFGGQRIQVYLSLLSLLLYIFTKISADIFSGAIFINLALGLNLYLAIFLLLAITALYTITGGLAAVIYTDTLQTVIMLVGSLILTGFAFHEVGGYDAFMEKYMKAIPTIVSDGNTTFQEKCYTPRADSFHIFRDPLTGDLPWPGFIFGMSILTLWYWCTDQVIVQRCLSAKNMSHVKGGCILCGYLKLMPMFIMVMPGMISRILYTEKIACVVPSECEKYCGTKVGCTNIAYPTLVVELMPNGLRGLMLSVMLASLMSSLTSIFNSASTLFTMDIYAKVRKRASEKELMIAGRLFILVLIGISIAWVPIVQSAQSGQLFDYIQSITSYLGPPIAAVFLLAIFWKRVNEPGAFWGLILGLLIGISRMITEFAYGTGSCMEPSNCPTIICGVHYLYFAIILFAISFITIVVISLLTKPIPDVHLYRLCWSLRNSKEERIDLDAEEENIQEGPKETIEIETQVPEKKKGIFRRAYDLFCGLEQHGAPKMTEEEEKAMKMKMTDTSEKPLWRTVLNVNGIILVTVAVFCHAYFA

With `OC[C@@]12CO[C@@](c3ccc(Cl)c(Cc4ccc(O)cc4)c3)(O1)[C@H](O)[C@@H](O)[C@@H]2O` [Example 1, (1S,2S,3S,4R,5S)-5-[4-chloro-3-(4-hydroxy-benzyl)-phenyl]-1-hydroxymethyl-6,8-dioxa-bicyclo[3.2.1]octane-2,3,4-triol], the IC50 on human SGLT2 (** final concentration of 200 microM AMG) is 2.6 nM.

`CCOc1ccc(Cc2cc([C@]34OC[C@](COC(C)=O)(O3)[C@@H](OC(C)=O)[C@H](OC(C)=O)[C@H]4OC(C)=O)ccc2Cl)cc1` [Example 2, Acetic acid (1R,2S,3S,4R,5S)-3,4-diacetoxy-1-acetoxymethyl-5-[4-chloro-3-(4-ethoxy-benzyl)-phenyl]-6,8-dioxa-bicyclo[3.2.1]oct-2-yl ester] registered a melting point of 134.3 °C. This compound also had an IC50 against hSGLT1 of 10000 nM. For the same compound, on human SGLT2 (setting [1]), the IC50 is 1090 nM and 1770 nM.

For `CCOc1ccc(Cc2cc([C@]34OC[C@](COC(C)=O)(O3)[C@@H](O)[C@H](O)[C@H]4O)ccc2Cl)cc1` [Example 3, Acetic acid (1R,2S,3S,4R,5S)-5-[4-chloro-3-(4-ethoxy-benzyl)-phenyl]-2,3,4-trihydoxy-6,8-dioxa-bicyclo[3.2.1]oct-1-ylmethyl ester], the concentration for half-maximal inhibition (IC50) against hSGLT1 was 3470 nM and 5830 nM.

Regarding `CCOC(=O)OC[C@@]12CO[C@@](c3ccc(Cl)c(Cc4ccc(OCC)cc4)c3)(O1)[C@H](O)[C@@H](O)[C@@H]2O` [Example 4, Carbonic acid (1R,2S,3S,4R,5S)-5-[4-chloro-3-(4-ethoxy-benzyl)-phenyl]-2,3,4-trihydroxy-6,8-dioxa-bicyclo[3.2.1]oct-1-ylmethyl ester ethyl ester], the IC50 against hSGLT1 is 3360 nM; at human SGLT2 (setting [1]) it was 45.9 nM.

`CCOc1ccc(Cc2cc([C@]34OC[C@](CF)(O3)[C@@H](O)[C@H](O)[C@H]4O)ccc2Cl)cc1` [Example 8, (1S,2S,3S,4R,5S)-5-[4-Chloro-3-(4-ethoxy-benzyl)-phenyl]-1-fluoromethyl-6,8-dioxa-bicyclo[3.2.1]octane-2,3,4-triol]: the IC50 is 1970 nM and 1890 nM and 2000 nM against hSGLT1; 4 nM (2×) and 3 nM on human SGLT2 (setting [1]).

The record behind these values is patent US8669380B2, “Dioxa-bicyclo[3.2.1]octane-2,3,4-triol derivatives” (Pfizer Inc., priority 2009, dated 2014).
